Paper PMC1238745, “A Surface Groove Essential for Viral Bcl-2 Function During Chronic Infection In Vivo” (PLoS Pathogens, 2005)
Ends that are not written are not given here.

Columns and labels:
[1] = target: T1, γHV68 v-Bcl-2 (wild-type) (Murid herpesvirus 4, UniProt P89884); assay: NMR titration of BH3 peptides with wild-type γHV68 v-Bcl-2; type: binding, murine γ-herpesvirus 68; conditions: 303 K; for binding over the concentration range of the titration: pH 7.8, peptide up to 320 μM
T1 construct: we expressed amino acids 1–137 of the v-Bcl-2, removing the carboxy-terminal hydrophobic domain; made in house; host or cells: E. coli BL21(DE3)
Description: (§1) Wild-type and SGR/AAA v-Bcl-2 used in NMR studies were expressed in E. coli BL21(DE3) strain grown on M9 media. For wild-type v-Bcl-2, uniformly ^15N-labeled, uniformly ^15N,^13C-labeled, and uniformly ^15N,^13C-labeled, 75% ^2H samples were prepared with media containing either ^15NH4Cl, ^15NH4Cl plus [U-^13C]glucose or ^15NH4Cl, [U-^13C]glucose, and 75% ^2H2O, respectively. For SGR/AAA v-Bcl-2, a ^15N-labeled sample was prepared with media containing ^15NH4Cl as the sole nitrogen source. Soluble protein was purified by Ni^2+-affinity chromatography. NMR samples contained 0.5–1.0 mM protein in either 90% H2O with 10% ^2H2O or 100% ^2H2O, 20 mM ^2H-TRIS (pH 7.8), and 5 mM ^2H-dithiothreitol.
(§2) All NMR experiments were acquired at 303 K on a Bruker DRX500, DRX600 or DRX800 NMR spectrometer. […] Side-chain ^1H and ^13C NMR signals were assigned from HCCH-TOCSY experiments. Stereospecific assignments of valine and leucine methyl groups were obtained from an analysis of the ^13C-^13C coupling patterns observed for biosynthetically directed, fractionally ^13C-labeled γHV68 v-Bcl-2 [87]. NOE distance restraints were obtained from three-dimensional ^15N- and ^13C-edited NOESY spectra acquired with a mixing time of 80 ms. Slowly exchanging amide protons were identified in an ^15N-HSQC spectrum recorded immediately after exchanging the protein into a buffer prepared with ^2H2O.
(§3) Binding of the Bak 16-mer ([…]), the Bax 16-mer ([…]), the Bad 25-mer ([…]), and a D83A mutant Bak 16-mer ([…]) to wild-type v-Bcl-2, and binding of the Bax 16-mer to SGR/AAA v-Bcl-2 was assessed by NMR titration. Each peptide was titrated from a concentrated stock solution into a sample of ^13C-labeled protein, and binding was monitored from changes in a ^13C methyl-HSQC spectrum. For wild-type v-Bcl-2, ^13C-HSQC spectra were recorded on a uniformly ^13C,^15N-labeled protein sample (120 μM) in the presence of increasing amounts of peptide (40, 80, 160, 240, and 320 μM). For SGR/AAA v-Bcl-2, ^15N-HSQC spectra were recorded on a sample of uniformly ^15N-labeled protein in the presence of increasing amounts of peptide.

[2] = system: Bcl-xL; conditions: vs Bak peptide; no reference in the sentence, preceding paragraph cites ref [53]; cited from earlier work
[3] = target: Bcl-2 and Bcl-xL; conditions: Bad BH3 peptide; ref [9]; read-out: affinity; cited from earlier work
[4] = system: Mcl-1; conditions: ref [70],[71]; cited from earlier work
Source text: (§4) In this property, the γHV68 and KSHV v-Bcl-2 proteins resemble cellular Mcl-1, which also fails to bind Bad BH3 peptide and is important for development of B cells, one of the cell types in which γHV68 establishes latency. One possible explanation for the lack of binding to the Bad BH3 peptide is that v-Bcl-2 binding to Bad is detrimental to the virus. Bad was recently found to be essential for assembly of a holoenzyme tha ...

[5] = system: KSHV v-Bcl-2; conditions: ref [9]; cited from earlier work
Source text: as §4, with “Each of these proteins interacts with BH3 peptides from Bak and Bax, but the viral proteins differ from the host proteins in their inability to bind the Bad BH3 peptide. […] In” for “In”

[6] = target: T2, γHV68 v-Bcl-2 (wild-type) (Murid herpesvirus 4, UniProt P89884); assay: NMR titration of BH3 peptides with wild-type γHV68 v-Bcl-2; type: binding, murine γ-herpesvirus 68; conditions: changes in 13C methyl-HSQC spectrum, 120 μM 13C,15N-labeled protein, peptide 40, 80, 160, 240, and 320 μM, 20 mM 2H-TRIS pH 7.8, 5 mM 2H-dithiothreitol, 303 K
T2 construct: we expressed amino acids 1–137 of the v-Bcl-2, removing the carboxy-terminal hydrophobic domain; made in house; host or cells: E. coli BL21(DE3)
T2 sequence (P89884 whole entry, looked up): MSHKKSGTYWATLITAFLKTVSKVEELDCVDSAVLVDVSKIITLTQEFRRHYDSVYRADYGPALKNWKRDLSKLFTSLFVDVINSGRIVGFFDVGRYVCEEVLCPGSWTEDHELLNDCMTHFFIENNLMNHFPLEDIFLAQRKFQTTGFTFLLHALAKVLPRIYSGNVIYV
Description: as §1, §2, §3

Sequence	binding over the concentration range of the titration [1]	Kd ([1]; changes in 13C methyl-HSQC spectrum, 120 μM 13C,15N-labeled protein, peptide 40, 80, 160, 240, and 320 μM, 20 mM 2H-TRIS pH 7.8, 5 mM 2H-dithiothreitol) [µM]	fold reduction of affinity for Bcl-xL by D83A mutation [2]	Kd [3] [µM]	binding of Bad BH3 peptide to Mcl-1 [4]	binding to KSHV v-Bcl-2 [5]	Kd [6] [µM]	exchange with γHV68 v-Bcl-2 on the NMR timescale ([1]; pH 7.8)
GQVGRQLAIIGADINR [D83A mutant Bak peptide]	no binding	> 300	more than 120 fold					
NLWAAQRYGRELRRMSDEFVSFKK [Bad BH3 peptide, Bad 25-mer ([…]), BH3 peptide from proapoptotic Bad]	bound weakly			0.0006 to 0.015	fails to bind	much lower affinity than is observed for Bcl-2 or Bcl-xL	> 300	
KKLSECLKRIGDELDS [Bax peptide]						interacts		slow exchange
